Here are results for 22 molecules from patent US9850203B2, “Autotaxin inhibitor compounds” (PharmAkea, Inc., priority 2013, dated 2017).

A word on the IC50: it is the concentration that inhibits the measured activity by half. A high value points to a need for much substance.

This assay deals with human autotaxin (ATX) (Homo sapiens (Human), UniProt Q13822). In words: Human Autotaxin Assay. Type of assay: biochemical. The conditions noted are these: concentrated conditioned media from Hep3B cells; LPC substrate, choline release. A digest of the protocol: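 Autotaxin source: Hep3B conditioned medium concentrated 20-fold, preincubated with compound 15 min at 37° C in lyso-PLD buffer (100 mM Tris pH 9, 500 mM NaCl, 5 mM MgCl2, 5 mM CaCl2, 0.05% Triton X-100, ±0.2% fatty-acid-free HSA). 100 uM LPC (14:0) then added, 1.5-3 hours at 37° C; choline release measured.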

On to `Cc1c(Sc2cccc(C(=O)O)c2)c2ccc(Cl)c(F)c2n1CC(=O)N1CCC2(CC1)CC(=O)N2` [Compound 1-41, 3-((6-Chloro-7-fluoro-2-methyl-1-(2-oxo-2-(2-oxo-1,7-diazaspiro[3.5]nonan-7-yl)ethyl)-1H-indol-3-yl)thio)benzoic acid], for which the IC50 is no more than 500 nM.
The figure for `Cc1c(Sc2cccc(C(=O)O)c2)c2ccc(Cl)c(F)c2n1CC(=O)N1CCC(c2cnn(C)c2)C1` (stereo not shown) [Compound 1-96, 3-((6-Chloro-7-fluoro-2-methyl-1-(2-(3-(1-methyl-1H-pyrazol-4-yl)pyrrolidin-1-yl)-2-oxoethyl)-1H-indol-3-yl)thio)benzoic acid] is no more than 500 nM; for `O=C(O)c1cccc(Sc2c(C3CC3)n(CC(=O)N3CCc4ccccc43)c3c(F)c(Cl)ccc23)c1F` [Compound 4-29, Sodium 3-((6-chloro-2-cyclopropyl-7-fluoro-1-(2-(indolin-1-yl)-2-oxoethyl)-1H-indol-3-yl)thio)-2-fluorobenzoate] it is no more than 500 nM.
For the molecule `Cc1c(Sc2cccc(C(=O)O)c2F)c2ccc(Cl)c(F)c2n1CC(=O)N1CC[C@@H](CO)C1` [Compound 2-64, (R)-3-((6-Chloro-7-fluoro-1-(2-(3-(hydroxymethyl)pyrrolidin-1-yl)-2-oxoethyl)-2-methyl-1H-indol-3-yl)thio)-2-fluorobenzoic acid], the IC50 was no more than 500 nM.
The figure for `Cc1c(Sc2cccc(C(=O)O)c2)c2ccc(Cl)c(F)c2n1CC(=O)N1CCC2(CCNC(=O)CC2)CC1` [Compound 1-53, 3-((6-Chloro-7-fluoro-2-methyl-1-(2-oxo-2-(10-oxo-3,9-diazaspiro[5.6]dodecan-3-yl)ethyl)-1H-indol-3-yl)thio)benzoic acid] is no more than 500 nM; for `Cc1c(Sc2cccc(C(=O)O)c2)c2ccc(Cl)c(F)c2n1CC(=O)N1CCC2(CC1)CC2C(=O)N1CCCC1` (stereo not shown) [Compound 1-40, 3-((6-Chloro-7-fluoro-2-methyl-1-(2-oxo-2-(1-(pyrrolidine-1-carbonyl)-6-azaspiro[2.5]octan-6-yl)ethyl)-1H-indol-3-yl)thio)benzoic acid] it is 500 to 3000 nM.
The figure for `Cc1c(Sc2cccc(C(=O)O)c2)c2ccc(Cl)c(F)c2n1CC(=O)N1CCCC1c1cnn(C)c1` (stereo not shown) [Compound 1-85, 3-((6-Chloro-7-fluoro-2-methyl-1-(2-(2-(1-methyl-1H-pyrazol-4-yl)pyrrolidin-1-yl)-2-oxoethyl)-1H-indol-3-yl)thio)benzoic acid] is no more than 500 nM; for `Cc1c(Sc2cccc(C(=O)O)c2)c2ccc(Cl)c(F)c2n1CC(=O)N1CC(C)(O)C1` [Compound 1-52, 3-((6-Chloro-7-fluoro-1-(2-(3-hydroxy-3-methylazetidin-1-yl)-2-oxoethyl)-2-methyl-1H-indol-3-yl)thio)benzoic acid] it is no more than 500 nM; for `Cc1c(Sc2cccc(C(=O)O)c2)c2ccc(Cl)c(F)c2n1CC(=O)N1CCC(Cc2ccncc2)C1` (stereo not shown) [Compound 1-88, 3-((6-Chloro-7-fluoro-2-methyl-1-(2-oxo-2-(3-(pyridin-4-ylmethyl)pyrrolidin-1-yl)ethyl)-1H-indol-3-yl)thio)benzoic acid] it is no more than 500 nM.
The figure for `CON(C)C(=O)Cn1c(C2CC2)c(Sc2cccc(C(=O)O)c2F)c2ccc(Cl)c(F)c21` [Compound 5-7, Sodium 3-((6-chloro-2-cyclopropyl-7-fluoro-1-(2-(methoxy(methyl)amino)-2-oxoethyl)-1H-indol-3-yl)thio)-2-fluorobenzoate] is 500 to 3000 nM.
On to `Cc1c(Sc2cccc(C(=O)O)c2)c2ccc(Cl)c(F)c2n1CC(=O)N1CCC2(CC1)CC(=O)C2` [Compound 1-18, 3-((6-Chloro-7-fluoro-2-methyl-1-(2-oxo-2-(2-oxo-7-azaspiro[3.5]nonan-7-yl)ethyl)-1H-indol-3-yl)thio)benzoic acid], for which the IC50 is no more than 500 nM.
The value for `Cc1c(Sc2cccc(C(=O)O)c2)c2ccc(Cl)c(F)c2n1CC(=O)N1CCc2ccc(Cl)cc21` [Compound 1-73, 3-((6-Chloro-1-(2-(6-chloroindolin-1-yl)-2-oxoethyl)-7-fluoro-2-methyl-1H-indol-3-yl)thio)benzoic acid] was no more than 500 nM; that for `Cc1c(Sc2cccc(C(=O)O)n2)c2ccc(Cl)c(F)c2n1CC(=O)N1CCc2ccccc21` [Compound 2-3] was no more than 500 nM.
The value for `Cc1c(Sc2cccc(C(=O)O)c2)c2ccc(Cl)c(F)c2n1CC(=O)N1CCC(OCc2ccc(F)cc2)C1` (stereo not shown) [Compound 1-22, 3-((6-Chloro-7-fluoro-1-(2-(3-((4-fluorobenzyl)oxy)pyrrolidin-1-yl)-2-oxoethyl)-2-methyl-1H-indol-3-yl)thio)benzoic acid] was no more than 500 nM.
The figure for `Cc1c(Sc2cccc(C(=O)O)c2)c2ccc(Cl)c(F)c2n1CC(=O)NCC(F)(F)F` [Compound 1-5, 3-((6-Chloro-7-fluoro-2-methyl-1-(2-oxo-2-((2,2,2-trifluoroethyl)amino)ethyl)-1H-indol-3-yl)thio)benzoic acid] is no more than 500 nM; for `Cc1c(Sc2cccc(C(=O)O)c2F)c2ccc(Cl)c(F)c2n1CC(=O)N1C[C@H](O)[C@@H](N2CCN(C)CC2)C1` [Compound 2-70, 3-((6-Chloro-7-fluoro-1-(2-((3S,4S)-3-hydroxy-4-(4-methylpiperazin-1-yl)pyrrolidin-1-yl)-2-oxoethyl)-2-methyl-1H-indol-3-yl)thio)-2-fluorobenzoic acid] it is no more than 500 nM.
As to `Cc1c(Sc2cccc(C(=O)O)n2)c2ccc(Cl)c(F)c2n1CC(=O)N1CC2(CC2)c2ccccc21` [Compound 2-54, 6-((6-Chloro-7-fluoro-2-methyl-1-(2-oxo-2-(spiro[cyclopropane-1,3′-indolin]-1′-yl)ethyl)-1H-indol-3-yl)thio)picolinic acid], the IC50 was no more than 500 nM.
`Cc1c(Sc2cccc(C(=O)O)c2F)c2ccc(Cl)c(F)c2n1CC(=O)N1CC2(CCC2)c2c(F)cccc21` [Compound 3-96, 3-((6-Chloro-7-fluoro-1-(2-(4′-fluorospiro[cyclobutane-1,3′-indolin]-1′-yl)-2-oxoethyl)-2-methyl-1H-indol-3-yl)thio)-2-fluorobenzoic acid] yielded a 50% inhibitory concentration (IC50) of no more than 500 nM.
The figure for `Cc1c(Sc2cccc(C(=O)O)c2)c2ccc(Cl)c(F)c2n1CC(=O)N1CCCCC1` [Compound 1-10, 3-((6-Chloro-7-fluoro-2-methyl-1-(2-oxo-2-(piperidin-1-yl)ethyl)-1H-indol-3-yl)thio)benzoic acid] is no more than 500 nM; for `Cc1c(Sc2cccc(C(=O)O)c2)c2ccc(Cl)c(F)c2n1CC(=O)N1CCCc2ccccc21` [Compound 1-36, 3-((6-Chloro-1-(2-(3,4-dihydroquinolin-1(2H)-yl)-2-oxoethyl)-7-fluoro-2-methyl-1H-indol-3-yl)thio)benzoic acid] it is no more than 500 nM; for `Cc1c(Sc2cccc(C(=O)O)n2)c2ccc(Cl)c(F)c2n1CC(=O)N1CC2(CCC2)c2c(F)cccc21` [Compound 3-104, 6-((6-Chloro-7-fluoro-1-(2-(4′-fluorospiro[cyclobutane-1,3′-indolin]-1′-yl)-2-oxoethyl)-2-methyl-1H-indol-3-yl)thio)picolinic acid] it is no more than 500 nM.
In the case of `Cc1c(Sc2cccc(C(=O)O)c2)c2ccc(Cl)c(F)c2n1CC(=O)Nc1cnn(C)c1` [Compound 1-6, 3-((6-Chloro-7-fluoro-2-methyl-1-(2-((1-methyl-1H-pyrazol-4-yl)amino)-2-oxoethyl)-1H-indol-3-yl)thio)benzoic acid], the IC50 was no more than 500 nM.
